Earlier results as cited in patent US10332616B2, “Movable type method applied to protein-ligand binding” (University of Florida Research Foundation, Inc., priority 2013, dated 2019).
Where two headings read alike, the source gives them in different places.

Legend:
T4 Lysozyme mutant = settings: PDB ID 1LI2
[1] = experimental solvation free energy
[2] = test set with 372 neutral compounds

Row | Structure (SMILES) | Exp. ΔGsolv ([1]; neutral compounds test set) [kcal/mol] | further results
1 | Oc1ccccc1 [phenol] |  | binding affinity (pKd) (T4 Lysozyme mutant): 4.04
2 | CCC(C)n1c(=O)[nH]c(C)c(Br)c1=O (stereo not drawn) [test1013] | -9.7 | 
3 | O=C1C2CC=CCC2C(=O)N1SC(Cl)(Cl)Cl (stereo not drawn) [test1014] | -9 | 
4 | CNC(=O)Oc1cccc2ccccc12 [test1015] | -9.5 | 
5 | CNC(=O)Oc1cccc2c1OC(C)(C)C2 [test1016] | -9.6 | 
6 | CCOP(=S)(OCC)SCSc1ccc(Cl)cc1 [test1017] |  | Exp. ΔGsolv [1, 2]: -6.5 kcal/mol
7 | ClC1=C(Cl)C2(Cl)C3C(Cl)C(Cl)CC3C1(Cl)C2(Cl)Cl (stereo not drawn) [test1018] |  | Exp. ΔGsolv [1, 2]: -3.4 kcal/mol
8 | CCOP(=O)(OCC)O/C(=C\Cl)c1ccc(Cl)cc1Cl [test1019] | -7.1 | 
9 | CCOC(=O)c1ccccc1S(=O)(=O)NC(=O)Nc1nc(Cl)cc(OC)n1 [test1020] | -14 | 
10 | CCOP(=S)(OCC)Oc1nc(Cl)c(Cl)cc1Cl [test1022] |  | Exp. ΔGsolv [1, 2]: -5 kcal/mol
11 | CCOP(=S)(OCC)SC(CCl)N1C(=O)c2ccccc2C1=O (stereo not drawn) [test1023] | -5.7 | 
12 | CCOP(=S)(OCC)Oc1cc(C)nc(C(C)C)n1 [test1024] | -6.5 | 
13 | COc1c(Cl)ccc(Cl)c1C(=O)O [test1025] | -9.9 | 
14 | CCN(CC)c1c([N+](=O)[O-])cc(C(F)(F)F)c(N)c1[N+](=O)[O-] [test1027] | -5.7 | 
15 | CCC(C)c1cc([N+](=O)[O-])cc([N+](=O)[O-])c1O (stereo not drawn) [test1028] |  | Exp. ΔGsolv [1, 2]: -6.2 kcal/mol
16 | O=S1OC[C@@H]2[C@H](CO1)[C@@]1(Cl)C(Cl)=C(Cl)[C@]2(Cl)C1(Cl)Cl (stereo partly drawn) [test1029] | -4.2 | 
17 | ClC1=C(Cl)C2(Cl)C3C4CC(C5OC45)C3C1(Cl)C2(Cl)Cl (stereo not drawn) [test1030] | -5.5 | 
18 | CCOP(=S)(OCC)SCSP(=S)(OCC)OCC [test1031] | -6.1 | 
19 | ClC1=C(Cl)C2(Cl)C3C(Cl)C=CC3C1(Cl)C2(Cl)Cl (stereo not drawn) [test1033] |  | Exp. ΔGsolv [1, 2]: -2.6 kcal/mol
20 | CC1=CC(=O)CC(C)(C)C1 [test1034] |  | Exp. ΔGsolv [1, 2]: -5.2 kcal/mol
21 | Cl[C@H]1[C@H](Cl)[C@@H](Cl)[C@@H](Cl)[C@H](Cl)[C@H]1Cl [test1035] |  | Exp. ΔGsolv [1, 2]: -5.4 kcal/mol
22 | CCOC(=O)CC(SP(=S)(OC)OC)C(=O)OCC (stereo not drawn) [test1036] | -8.2 | 
23 | CNC(=O)ON=C(C)SC [test1037] | -10.7 | 
24 | COC(=O)c1ccccc1S(=O)(=O)NC(=O)Nc1nc(C)nc(OC)n1 [test1039] | -15.5 | 
25 | CCCN(CCC)c1c([N+](=O)[O-])cc(S(C)(=O)=O)cc1[N+](=O)[O-] [test1040] | -8 | 

Row | Structure (SMILES) | Exp. ΔGsolv ([1]; neutral compounds test set) [kcal/mol] | further results
26 | CCOP(=S)(OCC)Oc1ccc([N+](=O)[O-])cc1 [test1043] | -6.7 | 
27 | CCCCN(CC)C(=O)SCCC [test1044] | -3.6 | 
28 | CCOP(=S)(OCC)SCSCC [test1045] | -4.4 | 
29 | CCCN(CC1CC1)c1c([N+](=O)[O-])cc(C(F)(F)F)cc1[N+](=O)[O-] [test1046] |  | Exp. ΔGsolv [1, 2]: -2.5 kcal/mol
30 | CSc1nc(NC(C)C)nc(NC(C)C)n1 [test1047] |  | Exp. ΔGsolv [1, 2]: -8.4 kcal/mol
31 | CCC(=O)Nc1ccc(Cl)c(Cl)c1 [test1048] | -7.8 | 
32 | Nc1cnn(-c2ccccc2)c(=O)c1Cl [test1049] | -16.4 | 
33 | CCNc1nc(Cl)nc(NCC)n1 [test1050] | -10.2 | 
34 | COC(=O)c1ccccc1S(=O)(=O)NC(=O)Nc1nc(C)cc(C)n1 [test1051] | -20.3 | 
35 | Cc1[nH]c(=O)n(C(C)(C)C)c(=O)c1Cl [test1052] | -11.1 | 
36 | CCNc1nc(NC(C)(C)C)nc(SC)n1 [test1053] |  | Exp. ΔGsolv [1, 2]: -6.7 kcal/mol
37 | COC(=O)c1sccc1S(=O)(=O)NC(=O)Nc1nc(C)nc(OC)n1 [test1054] | -16.2 | 
38 | COP(=O)(OC)C(O)C(Cl)(Cl)Cl (stereo not drawn) [test1055] | -12.7 | 
39 | CCCN(CCC)c1c([N+](=O)[O-])cc(C(F)(F)F)cc1[N+](=O)[O-] [test1056] |  | Exp. ΔGsolv [1, 2]: -3.3 kcal/mol
40 | CCCSC(=O)N(CCC)CCC [test1057] | -4.1 | 
41 | Nc1ccc(N=Nc2ccc([N+](=O)[O-])cc2)cc1 [test1058] |  | Exp. ΔGsolv [1, 2]: -11.2 kcal/mol
42 | Nc1ccc(Nc2ccccc2)c2c1C(=O)c1ccccc1C2=O [test1059] | -7.4 | 
43 | Nc1ccc(N)c2c1C(=O)c1c(N)ccc(N)c1C2=O [test1060] | -8.9 | 
44 | Nc1cccc2c1C(=O)c1ccccc1C2=O [test1061] | -8 | 
45 | Cc1nc(N(C)C)nc(OC(=O)N(C)C)c1C [test1063] |  | Exp. ΔGsolv [1, 2]: -9.4 kcal/mol
46 | CC(=O)Oc1ccccc1C(=O)O [test2001] | -9.94 | 
47 | CCCCOC(=O)c1ccc(O)cc1 [test2003] | -8.72 | 
48 | Cn1c(=O)c2c(ncn2C)n(C)c1=O [test2004] | -12.64 | 
49 | O=c1cc(Cl)[nH]c(=O)[nH]1 [test2006] | -15.83 | 
50 | O=c1[nH]c(=O)[nH]c(=O)[nH]1 [test2007] | -18.06 | 

Row | Structure (SMILES) | Exp. ΔGsolv ([1]; neutral compounds test set) [kcal/mol] | further results
51 | O=C(O)c1cc(-c2ccc(F)cc2F)ccc1O [test2010] | -9.4 | 
52 | CCOC(=O)c1ccc(O)cc1 [test2011] | -9.2 | 
53 | CC(C(=O)O)c1ccc(-c2ccccc2)c(F)c1 (stereo not drawn) [test2013] | -8.42 | 
54 | Clc1c(Cl)c(Cl)c(Cl)c(Cl)c1Cl [test2015] | -2.33 | 
55 | CC(C)Cc1ccc(C(C)C(=O)O)cc1 (stereo not drawn) [test2017] | -7 | 
56 | COC(=O)c1ccc(O)cc1 [test2020] | -9.51 | 
57 | COc1ccc2cc([C@H](C)C(=O)O)ccc2c1 [test2021] | -10.21 | 
58 | Nc1ccc([N+](=O)[O-])cc1 [test2022] |  | Exp. ΔGsolv [1, 2]: -9.45 kcal/mol
59 | FC1(F)C(F)(F)C(F)(F)C1(F)F [test2023] | 3.43 | 
60 | O=[N+]([O-])c1c(Cl)c(Cl)c(Cl)c(Cl)c1Cl [test2024] | -5.22 | 
61 | O=C1NC(=O)c2ccccc21 [test2025] |  | Exp. ΔGsolv [1, 2]: -9.61 kcal/mol
62 | CCCOC(=O)c1ccc(O)cc1 [test2026] | -9.37 | 
63 | O=S1(=O)CCCC1 [test2027] | -8.61 | 
64 | COC(OC)(OC)C(F)(F)F [test2029] | -0.8 | 
65 | CC(=O)Nc1ccc(O)cc1 [test3001] | -14.83 | 
66 | CC(=O)Nc1cccc(O)c1 [test3002] | -13.93 | 
67 | O=C(O)CCC(=O)c1ccc(-c2ccccc2)cc1 [test3003] | -12.75 | 
68 | CC(=O)Nc1ccccc1O [test3004] | -11.61 | 
69 | CCOc1ccc(NC(C)=O)cc1 [test3005] | -10.91 | 
70 | COc1ccccc1C(=O)O [test3007] | -10.32 | 
71 | COc1ccc(C(=O)O)cc1 [test3014] | -9.15 | 
72 | COc1cccc(C(=O)O)c1 [test3015] | -8.93 | 
73 | Cc1c(Cl)cccc1Nc1ccccc1C(=O)O [test3019] | -6.71 | 
74 | O=C(O)Cc1ccccc1Nc1c(Cl)cccc1Cl [test3020] | -6.3 | 
75 | O=C(O)c1ccccc1Nc1cccc(C(F)(F)F)c1 [test3021] | -5.68 | 
